Source: US10485741B2 (WONKWANG UNIVERSITY CENTER FOR INDUSTRY-ACADEMY COOPERATION, priority 2016, dated 2019)
≈ marks a conversion by molar mass, not a printed value.

Tests used:
Format in all cases: cell-based, Streptococcus mutans
S. mutans [1] = experiment: Agar diffusion test of fluoride varnish of hydrogenated rosin mixed with antibacterial substance, inhibition zone; settings: for Inhibition zone, Fluoride varnish + 1 mM substance / Inhibition zone, Fluoride varnish + 10 mM substance: substance mixed 1:1 with fluoride varnish, positive control = ampicillin alone; for antibacterial activities of fluoride varnish mixed with substance compared with a fluoride varnish alone (in words): primary test, 1 mM or 10 mM antibacterial substance
Experimental: Antibacterial substance powders were dissolved in DMSO to 100 mM and stored. It was diluted with DMSO to prepare 20 mM and 2 mM antibacterial substances.
Specifically, S. mutans was primarily cultured in a BHI medium in a CO2 incubator at 37°C. for 24 hours. Then, 200 μL of a suspension of S. mutans was inoculated into BHI and secondarily cultured for 6 hours. Then, the OD value was measured with Eppendorf Biophotometer plus. After the measurement, the bacteria were mixed with top agar and then inoculated into the agar medium containing base agar. After top agar hardened, a 6 mm diameter paper disc was placed on the agar medium.
(§1) 5 μL of each of 0.1 mM, 1 mM and 10 mM antibacterial substances was dropped on the paper disc. 10 μL/ml of ampicilin was used as the positive control, and PBS was used as the negative control. After culturing in a CO2 incubator at 37°C for 24 hours, the diameter of the S. mutans inhibition zone formed around the paper disc was measured in two perpendicular locations and the average was calculated to evaluate the antibacterial activities. The average was expressed in mm.
Fluoride varnishes mixed with an antibacterial substance which comprise an antibacterial substance tested in Test Example 1 were prepared according to the method described in Example 2 and the antibacterial activities thereof were tested.

S. mutans (ATCC 25175) = experiment: Agar diffusion test (paper disc), antibacterial substance alone; settings: for diameter of the S. mutans inhibition zone, 0.1 mM antibacterial substance alone: 5 μL of 0.1 mM substance on 6 mm paper disc; for diameter of the S. mutans inhibition zone, 0.1 mM antibacterial substance alone / diameter of the S. mutans inhibition zone, 1 mM antibacterial substance alone / diameter of the S. mutans inhibition zone, 10 mM antibacterial substance alone: 24 h, positive control 10 μL/ml ampicillin; for diameter of the S. mutans inhibition zone, 1 mM antibacterial substance alone: 5 μL of 1 mM substance on 6 mm paper disc; for diameter of the S. mutans inhibition zone, 10 mM antibacterial substance alone: 5 μL of 10 mM substance on 6 mm paper disc; for antibacterial activities against S. mutans (in words): screening from a total 100 substances
Experimental: as §1, with “Specifically, S. mutans was primarily cultured in a BHI medium in a CO2 incubator at 37°C. for 24 hours. Then, 200 μL of a suspension of S. mutans was inoculated into BHI and secondarily cultured for 6 hours. Then, the OD value was measured with Eppendorf Biophotometer plus. After the measurement, the bacteria were mixed with top agar and then inoculated into the agar medium containing base agar. After top agar hardened, a 6 mm diameter paper disc was placed on the agar medium. 5” for “5”

S. mutans [2] = experiment: Formation of Semi-inhibition zone by fluoride varnish mixed with antibacterial substance (agar diffusion); settings: for Semi-inhibition zone, Fluoride varnish + 1 mM substance / Semi-inhibition zone, Fluoride varnish + 10 mM substance: Table 4, substance mixed 1:1 with fluoride varnish, positive control = ampicillin alone
From the text: In addition, the formation of Semi-inhibition zone was investigated according to the same method as in Test Example 1.

S. mutans [3] = experiment: Minimum inhibitory concentration (MIC) and minimal bactericidal concentration (MBC), 96-well BHI broth dilution; settings: for MIC / MBC: Streptococcus mutans; for MIC: 24 h, BHI broth, 24-hour culture, absorbance at 600 nm, read-out: MIC; for MBC: read-out: MBC
Experimental: The minimum inhibitory concentration and minimal bactericidal concentration of antibacterial substances were identified using S. mutans, which is related to dental caries, as the strain. Specifically, in order to measure MIC, a 96-well plate containing 100 μL of BHI broth per well was used. Antibacterial substances were used at a concentration of 16 mM, and the substance No. 1-2 of Example 1 was used at a concentration of 1 mM. The antibacterial materials were transferred to the first well and diluted stepwise. The substance No. 1-2 was diluted to 1 mM to 0.004375 mM and the other antibacterial substances were diluted to 16 mM to 0.007 mM. S. mutans was activated using BHI broth as the medium and cultured in a CO2 incubator at 37° C. for 24 hours. Then, the bacteria were cultured for another 6 hours, and then 100 μL thereof was added to each well of the 96-well plate. After 24-hour culture, the minimum inhibitory concentration was determined by measuring the absorbance at 600 nm with Enzyme-linked immuno-assay reader (Spectra MAX250, Molecular Devices Co.).

SMILES: CC1(C)C=Cc2c(ccc(C(=O)/C=C/c3ccc(O)cc3)c2O)O1 [No. 4, Isobavachromene]
- Inhibition zone, Fluoride varnish + 1 mM substance (S. mutans [1]; primary test (Table 2)): 9.94 mm
- Inhibition zone, Fluoride varnish + 10 mM substance (S. mutans [1]; primary test (Table 2)): 10.93 mm
- antibacterial activities of fluoride varnish mixed with substance compared with a fluoride varnish alone (in words) (S. mutans [1]): significant antibacterial activities
- Inhibition zone, Fluoride varnish + 1 mM substance (S. mutans [1]; secondary test (Table 3)): 9.17 mm
- Inhibition zone, Fluoride varnish + 10 mM substance (S. mutans [1]; secondary test (Table 3)): 9.96 mm
- diameter of the S. mutans inhibition zone, 0.1 mM antibacterial substance alone (S. mutans (ATCC 25175)): 6 mm
- diameter of the S. mutans inhibition zone, 1 mM antibacterial substance alone (S. mutans (ATCC 25175)): 8.71 mm
- diameter of the S. mutans inhibition zone, 10 mM antibacterial substance alone (S. mutans (ATCC 25175)): 9.91 mm
- antibacterial activities against S. mutans (in words) (S. mutans (ATCC 25175)): significant antibacterial activities
- Semi-inhibition zone, Fluoride varnish + 1 mM substance (S. mutans [2]): 20.795 mm
- Semi-inhibition zone, Fluoride varnish + 10 mM substance (S. mutans [2]): 24.81 mm
- MIC, rank (in words) (S. mutans [3]): lowest MIC
- MIC (S. mutans [3]): 15 µM (≈ 4.84 µg/mL)
- MBC (S. mutans [3]): 125 µM (≈ 40.3 µg/mL)

SMILES: CC1(C)C=Cc2cc(C(=O)/C=C/c3ccc(O)cc3)c(O)cc2O1 [No. 5, Bavachromene]
- Inhibition zone, Fluoride varnish + 1 mM substance (S. mutans [1]; primary test (Table 2)): 10.27 mm
- Inhibition zone, Fluoride varnish + 10 mM substance (S. mutans [1]; primary test (Table 2)): 10.60 mm
- antibacterial activities of fluoride varnish mixed with substance compared with a fluoride varnish alone (in words) (S. mutans [1]): significant antibacterial activities
- Inhibition zone, Fluoride varnish + 1 mM substance (S. mutans [1]; secondary test (Table 3)): 8.66 mm
- Inhibition zone, Fluoride varnish + 10 mM substance (S. mutans [1]; secondary test (Table 3)): 10.48 mm
- antibacterial activities against S. mutans in all conditions (in words) (S. mutans (ATCC 25175); 10 mM, 1 mM and 0.1 mM): significant antibacterial activities
- diameter of the S. mutans inhibition zone, 0.1 mM antibacterial substance alone (S. mutans (ATCC 25175)): 6 mm
- diameter of the S. mutans inhibition zone, 1 mM antibacterial substance alone (S. mutans (ATCC 25175)): 8.75 mm
- diameter of the S. mutans inhibition zone, 10 mM antibacterial substance alone (S. mutans (ATCC 25175)): 9.74 mm
- antibacterial activities against S. mutans (in words) (S. mutans (ATCC 25175)): significant antibacterial activities
- Semi-inhibition zone, Fluoride varnish + 1 mM substance (S. mutans [2]): 20.79 mm
- Semi-inhibition zone, Fluoride varnish + 10 mM substance (S. mutans [2]): 25.235 mm
- MIC (S. mutans [3]): 31 µM (≈ 9.99 µg/mL)
- MBC (S. mutans [3]): 125 µM (≈ 40.3 µg/mL)

SMILES: CC1(C)S[C@@H]2[C@H](NC(=O)[C@H](N)c3ccccc3)C(=O)N2[C@H]1C(=O)O [Positive control group, ampicillin, reference compound]
- Inhibition zone, Fluoride varnish + 1 mM substance (S. mutans [1]; primary test (Table 2)): 18.05 mm
- Inhibition zone, Fluoride varnish + 10 mM substance (S. mutans [1]; primary test (Table 2)): 18.72 mm
- Inhibition zone, Fluoride varnish + 1 mM substance (S. mutans [1]; secondary test (Table 3)): 13.55 mm
- Inhibition zone, Fluoride varnish + 10 mM substance (S. mutans [1]; secondary test (Table 3)): 14.84 mm
- diameter of the S. mutans inhibition zone, 0.1 mM antibacterial substance alone (S. mutans (ATCC 25175)): 17.24 mm
- diameter of the S. mutans inhibition zone, 1 mM antibacterial substance alone (S. mutans (ATCC 25175)): 22.2 mm
- diameter of the S. mutans inhibition zone, 10 mM antibacterial substance alone (S. mutans (ATCC 25175)): 22.4 mm
- formation of Semi-inhibition zone (in words) (S. mutans [2]): did not form a Semi-inhibition zone
- Semi-inhibition zone, Fluoride varnish + 1 mM substance (S. mutans [2]): 13.55 mm
- Semi-inhibition zone, Fluoride varnish + 10 mM substance (S. mutans [2]): 14.84 mm

SMILES: CC(C)=CCC[C@@H](C)c1ccc(C)c(O)c1 [xanthorrhizol]
- antibacterial activities of fluoride varnish mixed with substance compared with a fluoride varnish alone (in words) (S. mutans [1]): significant antibacterial activities
- activities against S. mutans (in words) (S. mutans (ATCC 25175); 0.1 mM antibacterial substance): significant activities
- antibacterial activities against S. mutans (in words) (S. mutans (ATCC 25175)): significant antibacterial activities
